Experimental data reported in patent publication US20220125765A1, “PHARMACEUTICAL COMBINATIONS COMPRISING MEBENDAZOLE AND A STRONG OR MODERATE CYP1A2 INHIBITOR” (ZEPHAPHARM LTD, priority 2019, published 2022).
Where two headings read alike, the source gives them in different places.

Tests used:
[1] = target: T1, CYP2C8 (Homo sapiens, UniProt P10632); test: Cytochrome P450 reaction phenotyping, recombinant CYP2C8 (Bactosomes)
T1 sequence (P10632 1-490): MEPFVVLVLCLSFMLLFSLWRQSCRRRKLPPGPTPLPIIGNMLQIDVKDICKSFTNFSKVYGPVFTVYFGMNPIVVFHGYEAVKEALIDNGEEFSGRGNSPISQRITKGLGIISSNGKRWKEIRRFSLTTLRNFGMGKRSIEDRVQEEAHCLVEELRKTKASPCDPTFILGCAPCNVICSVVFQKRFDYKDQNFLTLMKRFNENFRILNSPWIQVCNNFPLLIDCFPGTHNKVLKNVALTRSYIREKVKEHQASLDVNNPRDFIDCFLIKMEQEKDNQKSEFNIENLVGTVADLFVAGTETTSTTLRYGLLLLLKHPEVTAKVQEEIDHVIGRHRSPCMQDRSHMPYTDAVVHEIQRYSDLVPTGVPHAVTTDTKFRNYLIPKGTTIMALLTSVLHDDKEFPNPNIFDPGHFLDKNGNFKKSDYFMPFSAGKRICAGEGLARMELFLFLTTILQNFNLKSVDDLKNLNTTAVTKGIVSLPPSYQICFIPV
Experimental: (§1) Incubations were also performed using control Bactosomes™ (no P450 enzymes present) to reveal any non-enzymatic degradation. Control compounds known to be metabolised specifically by each P450 isoform were included. All incubations were performed singularly for each test compound.
(§2) Incubations were also performed using control Bactosomes™ (no P450 enzymes present) to reveal any non-enzymatic degradation. Control compounds known to be metabolised specifically by each P450 isoform were included. All incubations were performed singularly for each test compound. […] The reactions were stopped by transferring an aliquot of incubate to quench solvent at the appropriate time points, in a 1:3 ratio. The termination plates were centrifuged at 3,000 rpm for 20 min at 4° C. to precipitate the protein.

[2] = target: CYP3A4 (Homo sapiens, UniProt P08684); test: Cytochrome P450 reaction phenotyping, recombinant CYP3A4 (Bactosomes)
CYP3A4, sequence (P08684 whole entry): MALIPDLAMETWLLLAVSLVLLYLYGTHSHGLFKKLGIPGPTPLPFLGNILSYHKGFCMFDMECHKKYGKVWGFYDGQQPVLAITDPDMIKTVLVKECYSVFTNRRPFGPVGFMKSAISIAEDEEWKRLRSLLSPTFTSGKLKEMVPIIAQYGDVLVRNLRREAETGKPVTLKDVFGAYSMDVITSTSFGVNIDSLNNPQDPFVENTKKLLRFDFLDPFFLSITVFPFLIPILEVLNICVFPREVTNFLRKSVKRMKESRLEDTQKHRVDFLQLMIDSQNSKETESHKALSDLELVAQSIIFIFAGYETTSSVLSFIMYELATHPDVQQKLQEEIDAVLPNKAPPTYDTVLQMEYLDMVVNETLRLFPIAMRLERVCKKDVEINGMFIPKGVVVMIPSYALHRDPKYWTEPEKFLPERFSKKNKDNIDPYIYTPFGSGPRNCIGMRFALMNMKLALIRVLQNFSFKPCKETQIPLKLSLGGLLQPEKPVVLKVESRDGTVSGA
Experimental: as §1, §2

[3] = tested on: SXFE RD-ES; test: 2D monolayer CellTiter-Blue viability, Ewing sarcoma RD-ES; type: cell-based; conditions: 72 h
Experimental: (§3) Seventeen compounds, including mebendazole (Batch no. […] Efficacy of compounds was assessed using CellTiter-Blue® Cell Viability Assay. Anti-tumor activity is expressed as absolute and relative IC50 and IC70 values, calculated by non-linear regression analysis.

[4] = tested on: SXFS 1301; test: 2D monolayer CellTiter-Blue viability, soft tissue sarcoma SXFS 1301; type: cell-based; conditions: 72 h
Experimental: as §3

[5] = tested on: SXFS Hs 729; test: 2D monolayer CellTiter-Blue viability, soft tissue sarcoma Hs 729; type: cell-based; conditions: 72 h
Experimental: as §3

[6] = tested on: OVCAR-3; test: 2D monolayer CellTiter-Blue viability, ovarian cancer OVCAR-3; type: cell-based; conditions: for IC50: Homo sapiens; for Test/Control (%) at Drug Concentration: 72 h
Experimental: (§4) Mebendazole was tested in vitro across a panel of 12 tumor cell lines of ovarian and renal cancer by using a 2D monolayer assay. […] OVXF 899L and RXF 486L are P-gp expressing, multidrug resistant cell lines.
(§5) Anti-tumor activity is expressed as absolute and relative IC50/70 values, calculated by 4-parameter non-linear curve fit.

[7] = tested on: OVCAR-5; test: 2D monolayer CellTiter-Blue viability, ovarian cancer OVCAR-5; type: cell-based; conditions: for IC50: Homo sapiens; for Test/Control (%) at Drug Concentration: 72 h
Experimental: as §4, §5

[8] = tested on: RXF 1220L; test: 2D monolayer CellTiter-Blue viability, renal cancer RXF 1220L; type: cell-based; conditions: for Test/Control (%) at Drug Concentration: 72 h
Experimental: as §4, §5

Compound Remaining (% of 0 min) ([1]; CYP2C8, 5 μM, 0 min): 100 % of 0 min | Compound Remaining (% of 0 min) ([1]; CYP2C8, 5 μM, 5 min): 90.6 % of 0 min | Compound Remaining (% of 0 min) ([1]; CYP2C8, 5 μM, 15 min): 93.4 % of 0 min | Compound Remaining (% of 0 min) ([1]; CYP2C8, 5 μM, 30 min): 102 % of 0 min | Compound Remaining (% of 0 min) ([1]; CYP2C8, 5 μM, 45 min): 99.1 % of 0 min | % compound remaining ([1]; CYP2C8, 5 μM, time not stated): > 87.5% | t1/2 ([1]; CYP2C8, substrate 5 μM): >2.25 h | half-life at 5 μM ([1]; human, recombinant CYP2C8 (Bactosomes), pH 7.4): > 2.25 h | Compound Remaining (% of 0 min) ([2]; CYP3A4, 5 μM, 0 min): 100 % of 0 min | Compound Remaining (% of 0 min) ([2]; CYP3A4, 5 μM, 5 min): 95.1 % of 0 min | Compound Remaining (% of 0 min) ([2]; CYP3A4, 5 μM, 15 min): 85.4 % of 0 min | Compound Remaining (% of 0 min) ([2]; CYP3A4, 5 μM, 30 min): 105 % of 0 min | Compound Remaining (% of 0 min) ([2]; CYP3A4, 5 μM, 45 min): 104 % of 0 min | % compound remaining ([2]; CYP3A4, 5 μM, time not stated): > 87.5% | t1/2 ([2]; CYP3A4, substrate 5 μM): >2.25 h | half-life at 5 μM ([2]; human, recombinant CYP3A4 (Bactosomes), pH 7.4): > 2.25 h | IC50 ([6]; OVCAR-3, 72 h, read-out: Abs. IC50): 0.426 µM | IC50 ([6]; OVCAR-3, 72 h, read-out: Rel. IC50): 0.362 µM | IC50 ([7]; OVCAR-5, 72 h, read-out: Abs. IC50): 0.865 µM | IC50 ([7]; OVCAR-5, 72 h, read-out: Rel. IC50): 0.732 µM | IC50 ([8]; RXF 1220, 72 h, read-out: Abs. IC50): > 3.2 µM | IC50 ([8]; RXF 1220, 72 h, read-out: Rel. IC50): 0.398 µM
Compound: COC(=O)Nc1nc2ccc(C(=O)c3ccccc3)cc2[nH]1 [Mebendazole, methyl N-(6-benzoyl-1H-benzimidazol-2-yl)carbamate]
Test/Control (%) at Drug Concentration ([3]; 1.0E+00 μM): 14% | Test/Control (%) at Drug Concentration ([3]; 1.0E+01 μM): 6% | Test/Control (%) at Drug Concentration ([3]; 1.0E+02 μM): 3% | Test/Control (%) at Drug Concentration ([3]; 1.0E−01 μM): 78% | Test/Control (%) at Drug Concentration ([3]; 1.0E−02 μM): 88% | Test/Control (%) at Drug Concentration ([3]; 3.2E+00 μM): 7% | Test/Control (%) at Drug Concentration ([3]; 3.2E+01 μM): 5% | Test/Control (%) at Drug Concentration ([3]; 3.2E−01 μM): 29% | Test/Control (%) at Drug Concentration ([3]; 3.2E−02 μM): 84% | Test/Control (%) at Drug Concentration ([3]; 3.2E−03 μM): 93% | Test/Control (%) at Drug Concentration ([4]; SXFS 1301, 1.0E+00 μM): 35% | Test/Control (%) at Drug Concentration ([4]; SXFS 1301, 1.0E+01 μM): 38% | Test/Control (%) at Drug Concentration ([4]; SXFS 1301, 1.0E+02 μM): 8% | Test/Control (%) at Drug Concentration ([4]; SXFS 1301, 1.0E−01 μM): 84% | Test/Control (%) at Drug Concentration ([4]; SXFS 1301, 1.0E−02 μM): 106% | Test/Control (%) at Drug Concentration ([4]; SXFS 1301, 3.2E+00 μM): 33% | Test/Control (%) at Drug Concentration ([4]; SXFS 1301, 3.2E+01 μM): 36% | Test/Control (%) at Drug Concentration ([4]; SXFS 1301, 3.2E−01 μM): 55% | Test/Control (%) at Drug Concentration ([4]; SXFS 1301, 3.2E−02 μM): 98% | Test/Control (%) at Drug Concentration ([4]; SXFS 1301, 3.2E−03 μM): 101% | Test/Control (%) at Drug Concentration ([5]; Hs 729, 1.0E+00 μM): 65% | Test/Control (%) at Drug Concentration ([5]; Hs 729, 1.0E+01 μM): 44% | Test/Control (%) at Drug Concentration ([5]; Hs 729, 1.0E+02 μM): 12% | Test/Control (%) at Drug Concentration ([5]; Hs 729, 1.0E−01 μM): 90% | Test/Control (%) at Drug Concentration ([5]; Hs 729, 1.0E−02 μM): 91% | Test/Control (%) at Drug Concentration ([5]; Hs 729, 3.2E+00 μM): 56% | Test/Control (%) at Drug Concentration ([5]; Hs 729, 3.2E+01 μM): 35% | Test/Control (%) at Drug Concentration ([5]; Hs 729, 3.2E−01 μM): 84% | Test/Control (%) at Drug Concentration ([5]; Hs 729, 3.2E−02 μM): 89% | Test/Control (%) at Drug Concentration ([5]; Hs 729, 3.2E−03 μM): 93% | Test/Control (%) at Drug Concentration ([6]; OVCAR-3, 1.0E+00 μM): 27% | Test/Control (%) at Drug Concentration ([6]; OVCAR-3, 1.0E−01 μM): 95% | Test/Control (%) at Drug Concentration ([6]; OVCAR-3, 1.0E−02 μM): 97% | Test/Control (%) at Drug Concentration ([6]; OVCAR-3, 1.0E−03 μM): 89% | Test/Control (%) at Drug Concentration ([6]; OVCAR-3, 1.0E−04 μM): 97% | Test/Control (%) at Drug Concentration ([6]; OVCAR-3, 3.2E+00 μM): 26% | Test/Control (%) at Drug Concentration ([6]; OVCAR-3, 3.2E−01 μM): 69% | Test/Control (%) at Drug Concentration ([6]; OVCAR-3, 3.2E−02 μM): 90% | Test/Control (%) at Drug Concentration ([6]; OVCAR-3, 3.2E−03 μM): 93% | Test/Control (%) at Drug Concentration ([6]; OVCAR-3, 3.2E−04 μM): 103% | Abs. IC70 ([6]; OVCAR-3, 72 h): 0.749 µM | Rel. IC70 ([6]; OVCAR-3, 72 h): 0.447 µM | Bot. (%) ([6]; OVCAR-3, 72 h, curve fit): 26% | Top (%) ([6]; OVCAR-3, 72 h, curve fit): 95% | Test/Control (%) at Drug Concentration ([7]; OVCAR-5, 1.0E+00 μM): 42% | Test/Control (%) at Drug Concentration ([7]; OVCAR-5, 1.0E−01 μM): 90% | Test/Control (%) at Drug Concentration ([7]; OVCAR-5, 1.0E−02 μM): 102% | Test/Control (%) at Drug Concentration ([7]; OVCAR-5, 1.0E−03 μM): 103% | Test/Control (%) at Drug Concentration ([7]; OVCAR-5, 1.0E−04 μM): 102% | Test/Control (%) at Drug Concentration ([7]; OVCAR-5, 3.2E+00 μM): 22% | Test/Control (%) at Drug Concentration ([7]; OVCAR-5, 3.2E−01 μM): 91% | Test/Control (%) at Drug Concentration ([7]; OVCAR-5, 3.2E−02 μM): 95% | Test/Control (%) at Drug Concentration ([7]; OVCAR-5, 3.2E−03 μM): 92% | Test/Control (%) at Drug Concentration ([7]; OVCAR-5, 3.2E−04 μM): 96% | Abs. IC70 ([7]; OVCAR-5, 72 h): 1.480 µM | Rel. IC70 ([7]; OVCAR-5, 72 h): 0.995 µM | Bot. (%) ([7]; OVCAR-5, 72 h, curve fit): 20% | Top (%) ([7]; OVCAR-5, 72 h, curve fit): 97% | Test/Control (%) at Drug Concentration ([8]; RXF 1220, 1.0E+00 μM): 70% | Test/Control (%) at Drug Concentration ([8]; RXF 1220, 1.0E−01 μM): 99% | Test/Control (%) at Drug Concentration ([8]; RXF 1220, 1.0E−02 μM): 113% | Test/Control (%) at Drug Concentration ([8]; RXF 1220, 1.0E−03 μM): 98% | Test/Control (%) at Drug Concentration ([8]; RXF 1220, 1.0E−04 μM): 99% | Test/Control (%) at Drug Concentration ([8]; RXF 1220, 3.2E+00 μM): 61% | Test/Control (%) at Drug Concentration ([8]; RXF 1220, 3.2E−01 μM): 83% | Test/Control (%) at Drug Concentration ([8]; RXF 1220, 3.2E−02 μM): 99% | Test/Control (%) at Drug Concentration ([8]; RXF 1220, 3.2E−03 μM): 106% | Test/Control (%) at Drug Concentration ([8]; RXF 1220, 3.2E−04 μM): 102% | Abs. IC70 ([8]; RXF 1220, 72 h): >3.200 µM | Rel. IC70 ([8]; RXF 1220, 72 h): 0.751 µM | Bot. (%) ([8]; RXF 1220, 72 h, curve fit): 59% | Top (%) ([8]; RXF 1220, 72 h, curve fit): 103%
